The target in assay [1] is T1, S1R (Cavia porcellus, UniProt Q60492).
T1 construct: [^3H]-( +)-Pentazocine on guinea pig brain according to the generally accepted protocol; from tissue; host or cells: guinea pig brain
Particulars: cited from earlier work.

Assay [2] concerns SARS-CoV-2. The assay can be described thus: Anti-SARS-CoV-2 activity, detection of viral genomes by RT-qPCR on infected cells. In kind it is cell-based. Particulars: for anti-SARS-CoV-2 activity in words: Vero E6 cells; for fold reduction in anti-SARS-CoV-2 activity: relative to PB28, Vero E6 cells. A general note: Real-time PCR tracks product formation cycle by cycle.
Assay [3] has as its target T2, S2R (Rattus norvegicus, UniProt Q5U3Y7).
T2 construct: [^3H]-DTG on rat liver masking with ( +)-Pentazocine according to the generally accepted protocol; from tissue; host or cells: rat liver
T2 sequence (Q5U3Y7 1-176): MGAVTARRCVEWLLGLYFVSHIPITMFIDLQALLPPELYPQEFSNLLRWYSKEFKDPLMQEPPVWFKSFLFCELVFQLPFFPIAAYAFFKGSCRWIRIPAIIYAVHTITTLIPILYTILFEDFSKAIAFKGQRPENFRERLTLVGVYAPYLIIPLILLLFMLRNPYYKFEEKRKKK
Particulars: [3H]-DTG, rat liver, masking with (+)-Pentazocine, cited from earlier work.

Assay [4] deals with SARS-CoV-2. Particulars: read-out: IC90 anti-SARS-CoV-2 activity in vitro; cited from earlier work.
Assay [5] has as its target T1, S1R. The assay can be described thus: S1R radioligand binding assay, [3H]-(+)-Pentazocine on guinea pig brain. Particulars: Table 1, compound 6 (no reference cited).
Assay [6] has as its target T2, S2R. Briefly: S2R radioligand binding assay, [3H]-DTG on rat liver masking with (+)-Pentazocine. Particulars: Table 1, compound 6 (no reference cited).
Setting [7] is: Table 1, [3H]-(+)-Pentazocine, guinea pig brain, mean of three experiments in duplicate, read-out: Ki nM S1R.
[8] abbreviates: Table 1, RT-qPCR of viral genomes, Vero E6 cells infected with SARS-CoV-2, one representative experiment of at least three.
Where [9] appears, read: Table 1, mean of three experiments in duplicate.
The mark [10] stands for this setting: Table 1, RT-qPCR of viral genomes, Vero E6 cells infected with SARS-CoV-2, one representative experiment of at least three, read-out: IC50 (μM) SARS-CoV-2.
[11] abbreviates: Table 3, [3H]-(+)-Pentazocine, guinea pig brain, read-out: Ki nM S1R.
[12] abbreviates: Table 3, RT-qPCR of viral genomes, Vero E6 cells infected with SARS-CoV-2, read-out: IC50 (μM) SARS-CoV-2.
Setting [13] is: Table 4, [3H]-(+)-Pentazocine, guinea pig brain, read-out: Ki Nm S1R.
Setting [14] is: Table 4, RT-qPCR of viral genomes, Vero E6 cells infected with SARS-CoV-2.

In general, Ki refers to the dissociation constant of the complex between target and ligand, obtained from inhibition or displacement. As a reminder, the IC50 is the concentration needed to halve the response being measured. As usually defined, the IC90 is the concentration needed for an effect of 90%.

Where two headings read alike, the source gives them in different places.

T1 sequence (Q60492 whole entry): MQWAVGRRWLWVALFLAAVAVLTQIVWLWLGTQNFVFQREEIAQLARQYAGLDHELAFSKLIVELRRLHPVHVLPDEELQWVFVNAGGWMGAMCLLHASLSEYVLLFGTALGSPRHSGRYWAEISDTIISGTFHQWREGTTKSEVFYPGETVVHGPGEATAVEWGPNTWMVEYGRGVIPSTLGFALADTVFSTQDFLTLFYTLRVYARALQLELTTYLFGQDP

`COc1ccc2c(CCCN3CCN(C4CCCCC4)CC3)cccc2c1` [Compound 14]: the Ki at S1R [1] (setting [7]) is 3.16 nM; at S2R [3] (setting [9]) it was 9.02 nM. For the same compound, the “IC50 (μM) SARS-CoV-2” value in the assay on SARS-CoV-2 [2] (setting [8]) is listed as “NOT ACTIVE”. Moreover, in the assay on SARS-CoV-2 [2], the “anti-SARS-CoV-2 activity in words” value is “complete loss of activity”.

Turning to `Oc1ccc2c(c1)CCCC2CCCN1CCN(C2CCCCC2)CC1` (racemic) [Compound 16], the Ki is 0.69 nM on S1R [1] (setting [7]) and 1.12 nM on S2R [3] (setting [9]). Further, the “IC50 (μM) SARS-CoV-2” value in the assay with SARS-CoV-2 [2] (setting [8]) was “NOT ACTIVE”. For the same compound, in the assay on SARS-CoV-2 [2], the “anti-SARS-CoV-2 activity in words” value is recorded as “complete loss of antiviral activity”.

Regarding `COc1cccc2c1CCC[C@H]2CCCN1CCN(C2CCCCC2)CC1` [( +)-S-PB28], the IC50 in the assay on SARS-CoV-2 [2] (setting [10]) is 0.455 µM. In addition, the Ki on S2R [3] (setting [9]) is 1.18 nM.

For the compound `CCCN1CCN(CCCC2CCCc3c(OC)cccc32)CC1` (racemic) [Compound 24], the Ki is 9.6 nM at S1R [1] (setting [11]) and 42.5 nM on S2R [3] (Table 3). Further, the IC50 in the assay on SARS-CoV-2 [2] (setting [12]) is 2.26 µM. In addition, the “fold reduction in anti-SARS-CoV-2 activity” value (shortened to “fold reduction”) in the assay with SARS-CoV-2 [2] is 8 fold.

`COc1cccc2c1CCCC2CCCCCN1CCN(C2CCCCC2)CC1` (racemic) [Compound 5]: the Ki at S1R [1] (setting [7]) is 1.52 nM; on S2R [3] (setting [9]), 0.35 nM. The IC50 with SARS-CoV-2 [2] (setting [10]) is 0.19 µM.

Take `Oc1cccc2c1CCCC2CCCN1CCN(C2CCCCC2)CC1` (racemic) [Compound 15]: the “IC50 (μM) SARS-CoV-2” value in the assay with SARS-CoV-2 [2] (setting [8]) is on record as “NOT ACTIVE”. Moreover, the “anti-SARS-CoV-2 activity in words” value in the assay on SARS-CoV-2 [2] is recorded as “complete loss of antiviral activity”. Also, the Ki at S2R [3] (setting [9]) is 2.66 nM.

Turning to `COc1cccc2c1CCCC2CN1CCN(C2CCCCC2)CC1` (racemic) [Compound 2], the Ki was 0.31 nM on S1R [1] (setting [7]) and 16.4 nM on S2R [3] (setting [9]). Further, the IC50 with SARS-CoV-2 [2] (setting [10]) stood at 5.9 µM. Moreover, the “fold reduction” value in the assay with SARS-CoV-2 [2] worked out at 20 fold.

For `Oc1ccc2c(CCCN3CCN(C4CCCCC4)CC3)cccc2c1` [Compound 17], the Ki at S1R [1] (setting [7]) was 6.78 nM; on S2R [3] (setting [9]), 26.4 nM. The “IC50 (μM) SARS-CoV-2” value with SARS-CoV-2 [2] (setting [8]) is “NOT ACTIVE”. For the same compound, in the assay with SARS-CoV-2 [2], the “anti-SARS-CoV-2 activity in words” value was “complete loss of antiviral activity”.

Take `c1ccc2c(CCCN3CCN(C4CCCCC4)CC3)cccc2c1` [Compound 11]: the Ki is 2.16 nM on S1R [1] (setting [7]) and 0.69 nM on S2R [3] (setting [9]). Besides, the IC50 with SARS-CoV-2 [2] (setting [10]) was found to be 0.94 µM.

Take `c1ccc2c(c1)CCCC2CCCCN1CCN(C2CCCCC2)CC1` (racemic) [Compound 8]: the half-maximal inhibitory concentration (IC50) with SARS-CoV-2 [2] (setting [10]) is 0.317 µM. Further, at S2R [3] (setting [9]), the Ki is 14.6 nM.

With `c1ccc2c(CCCCCN3CCN(C4CCCCC4)CC3)cccc2c1` [Compound 12], the Ki at S1R [1] (setting [7]) was 2.4 nM; at S2R [3] (setting [9]), 0.57 nM. Moreover, the IC50 in the assay on SARS-CoV-2 [2] (setting [10]) amounted to 0.52 µM.

Turning to `COc1ccc2c(c1)CCCC2CCCN1CCN(C2CCCCC2)CC1` (racemic) [Compound 10], the inhibition constant Ki is 0.36 nM on S1R [1] (setting [7]); 0.38 nM at S1R [1] (as quoted in the text of the docking section, read-out: Ki (S1R)); 5.42 nM on S2R [3] (setting [9]). Moreover, the IC50 in the assay with SARS-CoV-2 [2] (setting [10]) was 0.47 µM.

Turning to `COc1cccc2c1CCCC2CCCN1CCN(C)CC1` (racemic) [Compound 23], the Ki at S1R [1] (setting [11]) was 17.8 nM; on S2R [3] (Table 3), 663 nM. Also, the IC50 in the assay on SARS-CoV-2 [2] (setting [12]) amounted to 5.78 µM. Also, in the assay on SARS-CoV-2 [2], the “fold reduction” value is recorded as 20 fold.

On to `CCC(CC)N1CCN(CCCC2CCCc3c(OC)cccc32)CC1` (racemic) [Compound 25], for which the Ki at S1R [1] (setting [11]) is 12 nM; on S2R [3] (Table 3), 12.7 nM. Moreover, in the assay on SARS-CoV-2 [2] (Table 3, RT-qPCR of viral genomes, Vero E6 cells infected with SARS-CoV-2), the “IC50 (μM) SARS-CoV-2” value was “NOT ACTIVE”. Further, the “anti-SARS-CoV-2 activity in words” value in the assay on SARS-CoV-2 [2] was “no anti-SARS-CoV-2 activity”.

Take `COc1cccc2c1CCCC2CCN1CCN(C2CCCCC2)CC1` (racemic) [Compound 3]: the Ki is 1.57 nM on S1R [1] (setting [7]) and 21.1 nM on S2R [3] (setting [9]). Further, the IC50 in the assay with SARS-CoV-2 [2] (setting [10]) is 12.6 µM. Moreover, in the assay with SARS-CoV-2 [2], the “fold reduction” value is recorded as 40 fold.

Take `COc1ccc2c(CCCCN3CCC(C)CC3)cccc2c1` [PB212, reference compound]: the figures for the Ki at S1R [1] (setting [13]) and at S2R [3] (Table 4) were 0.03 nM and 17.9 nM, respectively. For the same compound, the “IC50 (μM) SARS-CoV-2” value in the assay on SARS-CoV-2 [2] (setting [14]) is recorded as “NOT ACTIVE”. Besides, in the assay with SARS-CoV-2 [2], the “anti-SARS-CoV-2 activity in words” value is listed as “did not demonstrate any antiviral effect”.

Take `c1ccc2c(c1)CCCC2CCCN1CCN(C2CCCCC2)CC1` (racemic) [Compound 7]: the figures for the Ki on S1R [1] (setting [7]) and on S2R [3] (setting [9]) were 0.61 nM and 0.68 nM, respectively. In addition, the IC50 with SARS-CoV-2 [2] (setting [10]) turned out to be 0.438 µM.

Take `COc1cccc2c1CCCC2CCCCN1CCN(C2CCCCC2)CC1` (racemic) [Compound 4]: in the assay on SARS-CoV-2 [2] (setting [10]), the IC50 was 0.32 µM. Besides, the Ki on S2R [3] (setting [9]) was 3.58 nM.

`COc1cccc2c1CCCC2N1CCN(C2CCCCC2)CC1` (racemic) [Compound 1]: the figures for the Ki on S1R [1] (setting [7]) and at S2R [3] (setting [9]) were 0.4 nM and 7.9 nM, respectively. Besides, in the assay with SARS-CoV-2 [2] (setting [8]), the “IC50 (μM) SARS-CoV-2” value was “NOT ACTIVE”. For the same compound, the “anti-SARS-CoV-2 activity in words” value in the assay on SARS-CoV-2 [2] is “loss of activity”.

`Oc1ccc2cccc(CCCN3CCN(C4CCCCC4)CC3)c2c1` [Compound 18]: the Ki was 5.48 nM at S1R [1] (setting [7]) and 11.8 nM at S2R [3] (setting [9]). Moreover, the “IC50 (μM) SARS-CoV-2” value in the assay on SARS-CoV-2 [2] (setting [8]) is on record as “NOT ACTIVE”. Also, the “anti-SARS-CoV-2 activity in words” value in the assay with SARS-CoV-2 [2] is “complete loss of antiviral activity”.

Take `COc1cccc2c(CCCN3CCN(C4CCCCC4)CC3)cccc12` [Compound 13]: in the assay on SARS-CoV-2 [2] (setting [10]), the IC50 was found to be 0.306 µM. Besides, the Ki on S2R [3] (setting [9]) was 9.24 nM.

As to `COc1cccc2c1CCCC2CCCN1CCN(C2CCCCC2)CC1` (centres unmarked) [PB28, 1-Cyclohexyl-4-[3-(5-methoxy-1,2,3,4-tetrahydronaphthalen-1-yl)propyl]piperazine, reference compound], the IC90 in the assay with SARS-CoV-2 [4] is 280 nM. Further, the IC50 in the assay with SARS-CoV-2 [2] (Severe acute respiratory syndrome coronavirus 2, Vero C1008, read-out: IC50 (μM) SARS-CoV-2) was 0.299 µM.

Take `COc1ccc2c(c1)CCCC2CCCCN1CCC(C)CC1` (centres unmarked) [PB190, reference compound]: the Ki at S1R [1] (setting [13]) is 0.42 nM; on S2R [3] (Table 4) it was 36.3 nM. In the assay on SARS-CoV-2 [2] (setting [14]), the “IC50 (μM) SARS-CoV-2” value is “NOT ACTIVE”. Moreover, the “anti-SARS-CoV-2 activity in words” value with SARS-CoV-2 [2] was “did not demonstrate any antiviral effect”.

With `COc1cccc2c1CCCC2CCCCCCN1CCN(C2CCCCC2)CC1` (racemic) [Compound 6], the Ki was 3.07 nM on S1R [5] and 103 nM at S2R [6]. Further, in the assay with SARS-CoV-2 [2] (setting [10]), the IC50 was determined as 1.32 µM. The “fold reduction” value in the assay with SARS-CoV-2 [2] was “threefold less potent”.

With `c1ccc2c(c1)CCCC2CCCCCN1CCN(C2CCCCC2)CC1` (racemic) [Compound 9], the Ki at S1R [1] (setting [7]) was 1.45 nM; on S2R [3] (setting [9]) it was 7.85 nM. Besides, the IC50 in the assay with SARS-CoV-2 [2] (setting [10]) amounted to 0.19 µM.

Regarding `COc1cccc2c1CCC[C@@H]2CCCN1CCN(C2CCCCC2)CC1` [(-)-R-PB28], the IC50 with SARS-CoV-2 [2] (setting [10]) was found to be 0.309 µM. The Ki at S2R [3] (setting [9]) is 0.49 nM.
